Type in all cases: biochemical
In assay [1] the target is AKT1 (Homo sapiens, UniProt P31749). Nature of the assay: ADP-Glo in vitro kinase assay; relative activity left at […].
Assay [2] addresses MET (Homo sapiens, UniProt P08581). The experiment in a line: ADP-Glo in vitro kinase assay.
The target of assay [3] is EGFR (Homo sapiens, UniProt P00533). Nature of the assay: ADP-Glo in vitro kinase assay. (In general: In ADP-Glo the light output rises with the ADP produced.)
EGFR, sequence (P00533 25-1210): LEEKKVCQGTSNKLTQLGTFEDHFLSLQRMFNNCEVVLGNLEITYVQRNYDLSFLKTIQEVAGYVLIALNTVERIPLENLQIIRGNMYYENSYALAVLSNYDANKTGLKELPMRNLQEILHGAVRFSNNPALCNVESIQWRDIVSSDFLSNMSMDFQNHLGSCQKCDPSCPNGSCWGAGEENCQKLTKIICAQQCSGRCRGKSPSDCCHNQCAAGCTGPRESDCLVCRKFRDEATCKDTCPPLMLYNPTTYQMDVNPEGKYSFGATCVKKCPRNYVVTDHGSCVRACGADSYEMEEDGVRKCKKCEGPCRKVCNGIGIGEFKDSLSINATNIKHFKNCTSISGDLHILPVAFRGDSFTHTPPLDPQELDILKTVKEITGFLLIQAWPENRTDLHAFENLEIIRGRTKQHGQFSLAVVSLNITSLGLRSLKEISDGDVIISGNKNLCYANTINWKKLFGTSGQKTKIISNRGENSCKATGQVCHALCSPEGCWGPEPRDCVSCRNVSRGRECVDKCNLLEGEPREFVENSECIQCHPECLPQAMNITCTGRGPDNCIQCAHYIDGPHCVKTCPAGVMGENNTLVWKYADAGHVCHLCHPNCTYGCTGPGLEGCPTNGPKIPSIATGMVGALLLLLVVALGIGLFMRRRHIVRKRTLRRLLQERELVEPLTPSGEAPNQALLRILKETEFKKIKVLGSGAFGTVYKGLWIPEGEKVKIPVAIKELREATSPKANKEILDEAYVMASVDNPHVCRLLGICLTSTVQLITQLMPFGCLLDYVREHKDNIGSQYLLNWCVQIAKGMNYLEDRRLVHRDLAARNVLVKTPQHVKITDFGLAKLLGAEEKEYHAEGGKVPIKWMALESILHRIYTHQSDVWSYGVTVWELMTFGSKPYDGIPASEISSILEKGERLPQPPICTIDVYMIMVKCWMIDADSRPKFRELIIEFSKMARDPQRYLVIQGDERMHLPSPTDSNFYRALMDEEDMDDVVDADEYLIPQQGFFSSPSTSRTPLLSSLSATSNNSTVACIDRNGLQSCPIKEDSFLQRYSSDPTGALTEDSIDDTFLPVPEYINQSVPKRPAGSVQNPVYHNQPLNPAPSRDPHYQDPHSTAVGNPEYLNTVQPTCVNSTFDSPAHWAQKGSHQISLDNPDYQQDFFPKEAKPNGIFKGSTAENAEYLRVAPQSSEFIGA

MET, sequence (P08581 25-307): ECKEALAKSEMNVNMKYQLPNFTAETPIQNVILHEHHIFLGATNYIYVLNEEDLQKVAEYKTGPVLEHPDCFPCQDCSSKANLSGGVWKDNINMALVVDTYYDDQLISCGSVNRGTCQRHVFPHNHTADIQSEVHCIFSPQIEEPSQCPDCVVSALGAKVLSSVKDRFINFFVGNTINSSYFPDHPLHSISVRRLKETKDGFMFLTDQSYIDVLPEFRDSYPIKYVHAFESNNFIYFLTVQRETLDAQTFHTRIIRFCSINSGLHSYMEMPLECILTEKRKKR
MET, sequence (P08581 308-1390): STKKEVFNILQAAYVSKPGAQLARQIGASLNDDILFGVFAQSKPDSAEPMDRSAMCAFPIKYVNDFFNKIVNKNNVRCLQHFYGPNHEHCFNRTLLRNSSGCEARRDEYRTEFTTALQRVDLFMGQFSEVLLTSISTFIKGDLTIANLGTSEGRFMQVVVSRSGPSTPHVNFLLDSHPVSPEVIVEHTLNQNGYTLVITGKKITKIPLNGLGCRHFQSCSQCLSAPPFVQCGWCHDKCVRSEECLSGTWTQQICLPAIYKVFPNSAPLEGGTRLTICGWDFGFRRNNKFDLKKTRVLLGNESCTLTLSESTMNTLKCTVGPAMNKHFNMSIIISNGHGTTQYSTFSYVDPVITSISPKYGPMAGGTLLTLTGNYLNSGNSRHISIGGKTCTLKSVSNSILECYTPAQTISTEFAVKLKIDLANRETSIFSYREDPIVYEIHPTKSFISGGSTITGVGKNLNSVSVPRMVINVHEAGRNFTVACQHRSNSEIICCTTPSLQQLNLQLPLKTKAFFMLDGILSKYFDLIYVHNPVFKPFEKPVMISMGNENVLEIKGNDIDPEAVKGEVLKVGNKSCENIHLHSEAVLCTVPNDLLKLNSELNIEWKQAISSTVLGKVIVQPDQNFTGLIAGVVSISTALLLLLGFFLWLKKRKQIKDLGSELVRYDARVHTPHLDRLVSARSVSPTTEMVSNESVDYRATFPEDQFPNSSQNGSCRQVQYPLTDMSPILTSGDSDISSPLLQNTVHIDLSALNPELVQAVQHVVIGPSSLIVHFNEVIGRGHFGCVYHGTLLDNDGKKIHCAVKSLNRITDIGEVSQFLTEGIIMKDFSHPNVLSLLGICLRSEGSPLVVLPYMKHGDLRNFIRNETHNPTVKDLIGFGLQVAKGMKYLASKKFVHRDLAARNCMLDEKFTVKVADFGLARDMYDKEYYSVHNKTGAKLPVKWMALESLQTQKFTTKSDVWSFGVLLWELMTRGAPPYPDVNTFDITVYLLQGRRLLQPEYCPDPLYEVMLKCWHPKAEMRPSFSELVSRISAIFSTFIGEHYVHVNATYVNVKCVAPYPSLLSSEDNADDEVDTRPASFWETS
AKT1, sequence (P31749 whole entry): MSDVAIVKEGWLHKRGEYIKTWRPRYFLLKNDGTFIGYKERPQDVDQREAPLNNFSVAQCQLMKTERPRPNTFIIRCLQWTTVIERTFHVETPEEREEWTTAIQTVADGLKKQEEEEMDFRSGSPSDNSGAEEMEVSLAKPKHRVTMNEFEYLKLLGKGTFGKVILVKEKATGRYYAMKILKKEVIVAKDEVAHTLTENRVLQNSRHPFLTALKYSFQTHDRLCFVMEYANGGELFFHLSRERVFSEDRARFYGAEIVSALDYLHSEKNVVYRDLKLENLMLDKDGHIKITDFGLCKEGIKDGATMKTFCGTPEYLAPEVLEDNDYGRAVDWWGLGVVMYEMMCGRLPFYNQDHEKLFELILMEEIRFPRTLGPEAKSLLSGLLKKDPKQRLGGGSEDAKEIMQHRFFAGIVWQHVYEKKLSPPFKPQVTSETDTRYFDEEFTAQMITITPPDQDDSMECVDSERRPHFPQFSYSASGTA

For the molecule `CC(=O)O[C@H]1CC[C@]2(C)C3=CC[C@]4(C)[C@H]5[C@H](O)C[C@@H](C(C)C)[C@]5(C)CC[C@@]4(C)[C@@H]3[C@@H](O)C[C@H]2C1(C)C` [ARu-B, 3-O-acetylrubiarbonol B], the activity at 8 µM in assay [1] was 58%. For the same molecule, the IC50 (in general, the point on the concentration scale where inhibition reaches its midpoint) in assay [2] was determined as 1700 nM; in assay [3], 3 µM.

Take `CC(C)[C@@H]1C[C@@H](O)[C@H]2[C@@]1(C)CC[C@@]1(C)[C@H]3C(=CC[C@]21C)[C@@]1(C)CC[C@H](O)C(C)(C)[C@@H]1C[C@@H]3O` [Ru-B, rubiarbonol B]: the activity at 8 µM in assay [1] stood at 67.1%. The values for the IC50 in assay [2] and in assay [3] were 4200 nM and 7.6 µM, respectively.

(Values after article PMC12416685, “3-O-acetylrubiarbonol B preferentially targets EGFR and MET over rubiarbonol B to inhibit NSCLC cell growth” (PLOS One, 2025).)
